Patent US8389526B2, “3-heteroarylmethyl-imidazo[1,2-b]pyridazin-6-yl derivatives” (Novartis AG, priority 2009, dated 2013)
Converted amounts (≈) assume the structure as drawn. Read-outs that look alike come from different tables or passages of the source.

Key:
[1] = molecular target: T1, c-Met receptor tyrosine kinase, GST-c-Met(969-1390) (Homo sapiens, UniProt P08581); test: EPK c-Met profiling assay (LanthaScreen TR-FRET kinase assay); type: biochemical; conditions: 2 μM ATP, 0.3 nM enzyme, 60 minutes at room temperature
T1 construct: made in house
T1 sequence (P08581 969-1390): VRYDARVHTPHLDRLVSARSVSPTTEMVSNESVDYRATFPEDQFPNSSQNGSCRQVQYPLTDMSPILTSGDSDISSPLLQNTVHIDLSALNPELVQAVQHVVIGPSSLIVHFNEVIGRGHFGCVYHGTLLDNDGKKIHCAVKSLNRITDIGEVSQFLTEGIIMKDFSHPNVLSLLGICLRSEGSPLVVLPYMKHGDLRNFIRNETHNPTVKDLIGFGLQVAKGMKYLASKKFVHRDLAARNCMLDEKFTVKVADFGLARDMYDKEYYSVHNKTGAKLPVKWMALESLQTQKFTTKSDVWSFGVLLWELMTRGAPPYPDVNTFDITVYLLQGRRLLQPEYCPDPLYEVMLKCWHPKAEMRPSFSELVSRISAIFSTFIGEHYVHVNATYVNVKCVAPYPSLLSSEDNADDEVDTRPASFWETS
Procedure, shortened: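 Recombinant GST-c-Met(969-1390) cytoplasmic domain, 0.3 nM, phosphorylating 50 nM Fluorescein-PolyEAY with 2 μM ATP, 10 mM MgCl2, 3 mM MnCl2, 60 min at room temperature. EDTA-stopped; phosphoproduct detected by TR-FRET with Tb-PY20 antibody, end-point read. Final compound 0.003-10 μM over 8 concentrations.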

[2] = Solubility assay at pH 7 and in FaSSIF; type: physicochemical; conditions: thermodynamic from solid
Method: A number of compounds of the present invention were assayed in a solubility assay at pH 7 and in fasted state simulated intestinal fluid (FaSSIF).
Solubility of the compounds was determined by suspending about 0.3 to 1.0 mg of drug substance in 0.1 mL of phosphate buffer at pH 7 and respectively FaSSIF.
Buffer pH 7 was obtained from MERCK as Tritisol® Phosphate Buffer. The Medium to Simulate the Fasted State Upper Small Intestine (Fasted State Simulated Intestinal Fluid) or FaSSIF was developed according to J. Dressmann publication Jantratid Ekarat; Janssen Niels; Reppas Christos; Dressman Jennifer B Dissolution media simulating conditions in the proximal human gastrointestinal tract: an update. Pharmaceutical research (2008), 25(7), 1663-76.
Composition from the FaSSIF is described in the following Table 3.
The suspensions or solutions were stirred over night at room temperature. After separation of the un-dissolved part by filtration (centrifugation using 0.45 μm PVDF or PTFE filters), the solutions were if necessary, diluted with acetonitrile to obtain concentrations below 1.0 mg/mL prior to UPLC analysis. Samples were then analyzed by UPLC to get the concentrations level of compound in the different media. Prior to analysis a method has been developed for each compound with an according calibration.
UPLC parameters: Column Aquity50*2.1 mm C18 1.7ym; Column temperature: 40° C.; mobile phase A: water MilliQ+0.1% TFA and B acetonitrile, gradient grade, +0.1% TFA.

[3] = FaSSIF (fasted state simulated intestinal fluid), fassif, fasted state simulated intestinal fluid, stirred over night at room temperature, read-out: Solubility FaSSIF
[4] = aqueous buffer, phosphate buffer pH 7, stirred over night at room temperature, read-out: Solubility Buffer pH 7

SMILES | IC50 [1] [nM] | solubility [2, 3] [µg/mL] | solubility [2, 4] [µg/mL]
C[C@@H](c1c(F)cc2ncccc2c1F)c1cnc2ccc(N3CCNC(=O)C3)nn12 (single isomer, unassigned) [Example 5] | < 3 | 164 (≈ 402 µM) | 91 (≈ 223 µM)
C[C@@H](c1c(F)cc2ncccc2c1F)c1cnc2ccc(N3CCN(C)C(=O)C3)nn12 [Example 2, 4-{3-[(S)-1-(5,7-Difluoro-quinolin-6-yl)-ethyl]-imidazo[1,2-b]pyridazin-6-yl}-1-methyl-piperazin-2-one] | < 3 | 289 (≈ 684 µM) | 29 (≈ 68.6 µM)
C[C@@H](c1c(F)cc2ncccc2c1F)c1cnc2ccc(N3CCNCC3)nn12 [Example 7, 5,7-Difluoro-6-[(S)-1-(6-piperazin-1-yl-imidazo[1,2-b]pyridazin-3-yl)-ethyl]-quinoline] | 4.1 | 172 (≈ 436 µM) | 248 (≈ 629 µM)
CC(=O)N1CCN(c2ccc3ncc([C@@H](C)c4c(F)cc5ncccc5c4F)n3n2)CC1 [Example 11, 1-(4-{3-[(S)-1-(5,7-Difluoro-quinolin-6-yl)-ethyl]-imidazo[1,2-b]pyridazin-6-yl}-piperazin-1-yl)ethanone] | 3.6 | 1350 (≈ 3100 µM) | 32 (≈ 73.3 µM)
C[C@@H](c1cc2cnn(C)c2cc1F)c1cnc2ccc(N3CCNC(=O)C3)nn12 [Example 28, 4-{3-[(S)-1-(6-Fluoro-1-methyl-1H-indazol-5-yl)-ethyl]-imidazo[1,2-b]pyridazin-6-yl}-piperazin-2-one] | 17 | 374 (≈ 951 µM) | 117 (≈ 297 µM)
